Consider 16 compounds from ChEMBL document CHEMBL1909046, “DrugMatrix in vitro pharmacology data”.

Assay [1] concerns the target Aldo-keto reductase family 1 member B1 (Rattus norvegicus, UniProt P07943). Put plainly: biochemical. It is filed as tissue-based, Lens of camera-type eye.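 Note: inhibition of aldose reductase enzyme activity, measured with DL-glyceraldehyde as the substrate; in other assays of this panel Not Active means under 50% inhibition at 10 µM.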
Assay [2] concerns the target Melanocortin receptor 5 (Homo sapiens, UniProt P33032). It is filed as cell membranes, HEK293, Membrane. Note: in other assays of this panel Not Active means under 50% inhibition at 10 µM.
The nature of assay [3]: DRUGMATRIX: Glutamate, NMDA, Agonism radioligand binding (ligand: [3H] CGP-39653). Particulars: Not Active = under 50% inhibition at 10 µM. It is filed as cell membranes, Rattus norvegicus, Wistar, Cerebral cortex, Membrane.
The nature of assay [4]: DRUGMATRIX: Platelet-Derived Growth Factor (PDGF) radioligand binding (ligand: [125I] PDGF). The following applies: nih3t3; Not Active = under 50% inhibition at 10 µM. It is filed as cell-based.
For assay [5], the target named is C-C chemokine receptor type 5 (Homo sapiens, UniProt P51681). The format is cell membranes, Membrane. Particulars: hek293. Note: in other assays of this panel Not Active means under 50% inhibition at 10 µM.
The target in assay [6] is T1, Cysteinyl leukotriene receptor 1 (Homo sapiens, UniProt Q9Y271). Note: in other assays of this panel Not Active means under 50% inhibition at 10 µM.
T1 sequence (Q9Y271 whole entry): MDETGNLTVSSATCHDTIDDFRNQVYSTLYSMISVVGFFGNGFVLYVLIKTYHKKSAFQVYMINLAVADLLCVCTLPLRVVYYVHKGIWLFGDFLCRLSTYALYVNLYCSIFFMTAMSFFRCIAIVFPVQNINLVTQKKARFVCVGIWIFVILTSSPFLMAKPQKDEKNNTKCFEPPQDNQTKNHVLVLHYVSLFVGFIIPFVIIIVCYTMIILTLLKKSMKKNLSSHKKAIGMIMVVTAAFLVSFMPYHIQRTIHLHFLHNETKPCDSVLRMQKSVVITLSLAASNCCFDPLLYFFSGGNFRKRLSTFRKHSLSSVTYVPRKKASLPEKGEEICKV
It is filed as cell membranes, CHO-K1, Membrane. The following applies: cho-k1.

Assay [7] can be described thus: DRUGMATRIX: Potassium Channel [KATP] radioligand binding (ligand: [3H] Glyburide). The format is cell membranes, Membrane. The following applies: hit-t15; Not Active = under 50% inhibition at 10 µM.
The target of assay [8] is T2, Adenosine receptor A1 (Homo sapiens, UniProt P30542).
T2 sequence (P30542 whole entry): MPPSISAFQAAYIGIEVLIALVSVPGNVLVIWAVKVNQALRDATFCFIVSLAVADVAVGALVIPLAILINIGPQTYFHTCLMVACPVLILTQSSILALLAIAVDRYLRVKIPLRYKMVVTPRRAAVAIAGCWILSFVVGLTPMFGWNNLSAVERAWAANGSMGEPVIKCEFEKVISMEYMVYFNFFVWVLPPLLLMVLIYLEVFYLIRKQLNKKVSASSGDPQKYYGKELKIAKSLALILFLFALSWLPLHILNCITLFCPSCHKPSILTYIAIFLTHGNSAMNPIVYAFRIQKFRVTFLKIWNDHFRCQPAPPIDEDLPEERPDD
The format is cell membranes, CHO, Membrane. Particulars: cho.

Sequence of Melanocortin receptor 5 (P33032 whole entry): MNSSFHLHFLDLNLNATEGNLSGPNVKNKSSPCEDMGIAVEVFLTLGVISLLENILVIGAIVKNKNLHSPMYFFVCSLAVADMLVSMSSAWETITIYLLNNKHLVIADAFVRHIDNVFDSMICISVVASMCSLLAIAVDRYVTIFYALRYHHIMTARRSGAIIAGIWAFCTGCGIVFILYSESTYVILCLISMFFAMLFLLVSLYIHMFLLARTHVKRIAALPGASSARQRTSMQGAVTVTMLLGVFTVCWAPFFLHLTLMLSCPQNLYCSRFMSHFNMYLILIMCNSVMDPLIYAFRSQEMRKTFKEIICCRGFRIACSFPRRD
Sequence of C-C chemokine receptor type 5 (P51681 whole entry): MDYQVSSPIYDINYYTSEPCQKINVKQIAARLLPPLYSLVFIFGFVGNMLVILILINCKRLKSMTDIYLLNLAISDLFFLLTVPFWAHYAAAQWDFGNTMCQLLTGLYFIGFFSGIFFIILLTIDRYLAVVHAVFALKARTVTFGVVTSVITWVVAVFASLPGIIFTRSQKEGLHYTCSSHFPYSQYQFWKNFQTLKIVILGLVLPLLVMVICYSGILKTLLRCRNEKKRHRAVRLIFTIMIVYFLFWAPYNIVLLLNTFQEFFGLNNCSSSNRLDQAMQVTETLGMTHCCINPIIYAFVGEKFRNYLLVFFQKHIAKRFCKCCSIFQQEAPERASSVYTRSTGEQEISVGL

Usually IC50 stands for the point on the concentration scale where inhibition reaches its midpoint. By Ki is commonly meant a dissociation constant, usually derived from enzyme kinetics or from competition with a known ligand. `COc1ccc(C[C@H]2NC[C@H](O)[C@H]2OC(C)=O)cc1` [ANISOMYCIN]: the IC50 entry in assay [1], in assay [2] (hek293), in assay [3], in assay [4], in assay [5] and in assay [6] was “Not Active” throughout. Besides, the IC50 result in assay [7] and in assay [8] was “Not Active” in each case. Moreover, the Ki entry in assay [1], in assay [2] (hek293), in assay [3], in assay [4], in assay [5] and in assay [6] was “Not Active” each time. In addition, the Ki entry in assay [7] and in assay [8] was “Not Active” each time.
In the case of `Nc1ncn([C@@H]2O[C@H](CO)[C@@H](O)[C@H]2O)c(=O)n1` [AZACITIDINE], the IC50 entry in assay [1], in assay [2] (hek293), in assay [3], in assay [4], in assay [5] and in assay [6] was “Not Active” in each case. In addition, the IC50 result in assay [7] and in assay [8] was “Not Active” each time. The Ki result in assay [3], in assay [4] and in assay [7] was “Not Active” in each case.
As to `CN(C)C(=O)Oc1cc(OC(=O)N(C)C)cc(C(O)CNC(C)(C)C)c1` (configuration not stated) [BAMBUTEROL], the IC50 result in assay [1], in assay [2] (hek293), in assay [3], in assay [4], in assay [5] and in assay [6] was “Not Active” in each case. In addition, the IC50 entry in assay [7] and in assay [8] was “Not Active” in each case. Besides, the Ki result in assay [3], in assay [4] and in assay [7] was “Not Active” throughout.
For the compound `c1ccc2c(c1)c1cccc3ccc4cccc2c4c31` [BENZO[E]PYRENE], the IC50 entry in assay [1], in assay [2] (hek293), in assay [3], in assay [4], in assay [5] and in assay [6] was “Not Active” each time. Besides, the IC50 entry in assay [7] and in assay [8] was “Not Active” each time. In addition, the Ki entry in assay [3], in assay [4] and in assay [7] was “Not Active” in each case.
For the compound `CNCCc1ccccn1` [BETAHISTINE], the IC50 entry in assay [1], in assay [2] (hek293), in assay [3], in assay [4], in assay [5] and in assay [6] was “Not Active” throughout. Moreover, the IC50 entry in assay [7] and in assay [8] was “Not Active” in each case. In addition, the inhibition constant Ki entry in assay [3], in assay [4] and in assay [7] was “Not Active” in each case.
For the compound `CC(C)C(Br)C(=O)NC(N)=O` (configuration not stated) [BROMISOVALUM], the IC50 result in assay [1], in assay [2] (hek293), in assay [3], in assay [4], in assay [5] and in assay [6] was “Not Active” in each case. The IC50 result in assay [7] and in assay [8] was “Not Active” each time. Also, the Ki result in assay [3], in assay [4] and in assay [7] was “Not Active” each time.
As to `CCCC1O[C@@H]2C[C@H]3[C@@H]4CCC5=CC(=O)C=C[C@]5(C)[C@H]4[C@@H](O)C[C@]3(C)[C@]2(C(=O)CO)O1` (some centres not stated) [BUDESONIDE], the IC50 result in assay [1], in assay [2] (hek293), in assay [3], in assay [4], in assay [5] and in assay [6] was “Not Active” in each case. In addition, the IC50 entry in assay [7] and in assay [8] was “Not Active” throughout. Also, the Ki result in assay [3], in assay [4] and in assay [7] was “Not Active” each time.
Regarding `CC(NC(C)(C)C)C(=O)c1cccc(Cl)c1` (configuration not stated) [BUPROPION], the half-maximal inhibitory concentration (IC50) result in assay [1], in assay [2] (hek293), in assay [3], in assay [4], in assay [5] and in assay [6] was “Not Active” each time. For the same compound, the IC50 entry in assay [7] and in assay [8] was “Not Active” throughout. For the same compound, the Ki entry in assay [3], in assay [4] and in assay [7] was “Not Active” throughout.
In the case of `CN(Cc1ccc(C(C)(C)C)cc1)Cc1cccc2ccccc12` [BUTENAFINE], the IC50 result in assay [1], in assay [2] (hek293), in assay [3], in assay [4], in assay [5] and in assay [6] was “Not Active” throughout. In addition, the IC50 entry in assay [7] and in assay [8] was “Not Active” throughout. The Ki entry in assay [3], in assay [4] and in assay [7] was “Not Active” each time.
Take `C[C@H](CS)C(=O)N1CCC[C@H]1C(=O)O` [CAPTOPRIL]: the IC50 entry in assay [1], in assay [2] (hek293), in assay [3], in assay [4], in assay [5] and in assay [6] was “Not Active” in each case. In addition, the IC50 entry in assay [7] and in assay [8] was “Not Active” throughout. In addition, the Ki result in assay [3], in assay [4] and in assay [7] was “Not Active” throughout.
As for `Cc1ccc(-c2cc(C(F)(F)F)nn2-c2ccc(S(N)(=O)=O)cc2)cc1` [CELECOXIB], the IC50 entry in assay [1], in assay [2] (hek293), in assay [3], in assay [4], in assay [5] and in assay [6] was “Not Active” each time. In addition, the IC50 entry in assay [7] and in assay [8] was “Not Active” each time. Further, the inhibition constant (Ki) entry in assay [3], in assay [4] and in assay [7] was “Not Active” throughout.
`O=C(O)CCCc1ccc(N(CCCl)CCCl)cc1` [CHLORAMBUCIL]: the IC50 in assay [1] (read-out: IC50) is 9.41 µM; in assay [2] (hek293), “Not Active”; in assay [3] it was “Not Active”; in assay [4] it was “Not Active”; in assay [5], “Not Active”; in assay [6], “Not Active”. Moreover, the half-maximal inhibitory concentration (IC50) entry in assay [7] and in assay [8] was “Not Active” throughout. Also, the Ki entry in assay [3], in assay [4] and in assay [7] was “Not Active” in each case.
`CN(C)CCCN1c2ccccc2Sc2ccc(Cl)cc21` [CHLORPROMAZINE]: the IC50 result in assay [1] was “Not Active”; in assay [2] (read-out: IC50) it was 7.62 µM; in assay [3], “Not Active”; in assay [4], “Not Active”; in assay [5], “Not Active”; in assay [6] it was “Not Active”. Moreover, the IC50 result in assay [7] and in assay [8] was “Not Active” each time. Moreover, the Ki in assay [2] (read-out: Ki) is 7.15 µM; in assay [3], “Not Active”; in assay [4], “Not Active”; in assay [7] it was “Not Active”.
As for `C[C@H](CCC(=O)O)[C@H]1CC[C@H]2[C@@H]3[C@H](O)C[C@@H]4C[C@H](O)CC[C@]4(C)[C@H]3C[C@H](O)[C@]12C` [CHOLIC ACID], the IC50 entry in assay [1], in assay [2] (hek293), in assay [3], in assay [4], in assay [5] and in assay [6] was “Not Active” each time. Besides, the IC50 result in assay [7] and in assay [8] was “Not Active” in each case. The Ki entry in assay [3], in assay [4] and in assay [7] was “Not Active” each time.
For the compound `Cc1cc(C2CCCCC2)n(O)c(=O)c1` [CICLOPIROX], the IC50 entry in assay [1], in assay [2] (hek293), in assay [3], in assay [4], in assay [5] and in assay [6] was “Not Active” throughout. The IC50 result in assay [7] and in assay [8] was “Not Active” throughout. For the same compound, the Ki result in assay [3], in assay [4] and in assay [7] was “Not Active” throughout.
Regarding `CC1=C2C(=CO[C@H](C)[C@H]2C)C(O)=C(C(=O)O)C1=O` [CITRININ], the IC50 result in assay [1], in assay [2] (hek293), in assay [3], in assay [4], in assay [5] and in assay [6] was “Not Active” throughout. For the same compound, the IC50 entry in assay [7] and in assay [8] was “Not Active” each time. Also, the Ki entry in assay [3], in assay [4] and in assay [7] was “Not Active” throughout.
